The values below come from patent US20210369853A1, “TARGETED PROTEASE DEGRADATION PLATFORM” (EUBULUS BIOTHERAPEUTICS INC., priority 2018, published 2021).

Read-outs that look alike come from different tables or passages of the source.

Holding throughout (type): cell-based
Assay [1] concerns HUVEC. Kind of assay: Cell proliferation experiment (EC50), HUVEC. Conditions: Homo sapiens.
In the next assay the target is T1, BRD4 (Homo sapiens, UniProt O60885).
T1 construct: endogenous in cells
Kind of assay: Western blot, protein degradation (DC50). The method, boiled down:
(§1)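 Cells treated with compound, lysed in RIPA and resolved by SDS-PAGE (4%-12%); PVDF blots probed with primary antibody overnight at 4° C, then secondary antibody, and developed with ECL. Band intensities quantified by densitometry to give degradation.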

The target in another assay is T2, PLK1 (Homo sapiens, UniProt P53350).
T2 construct: endogenous in cells
T2 sequence (P53350 whole entry): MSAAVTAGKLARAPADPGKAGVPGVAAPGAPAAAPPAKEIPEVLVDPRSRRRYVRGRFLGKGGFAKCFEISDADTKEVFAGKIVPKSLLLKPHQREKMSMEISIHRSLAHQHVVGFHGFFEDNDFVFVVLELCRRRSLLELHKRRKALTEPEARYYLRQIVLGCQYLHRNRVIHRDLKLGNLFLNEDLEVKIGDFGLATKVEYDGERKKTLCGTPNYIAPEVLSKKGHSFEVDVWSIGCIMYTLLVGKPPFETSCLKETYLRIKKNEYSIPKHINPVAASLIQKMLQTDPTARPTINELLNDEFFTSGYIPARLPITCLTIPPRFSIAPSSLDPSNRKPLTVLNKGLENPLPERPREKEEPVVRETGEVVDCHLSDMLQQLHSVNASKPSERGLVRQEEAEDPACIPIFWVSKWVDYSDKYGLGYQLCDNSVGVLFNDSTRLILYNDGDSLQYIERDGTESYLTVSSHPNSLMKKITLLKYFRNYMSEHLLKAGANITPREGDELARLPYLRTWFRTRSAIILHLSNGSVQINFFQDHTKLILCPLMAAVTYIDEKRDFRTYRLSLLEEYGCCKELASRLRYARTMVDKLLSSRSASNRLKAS
Kind of assay: Western blot, protein degradation (DC50). The method, boiled down: as §1
(In general: In western blotting, separated proteins are transferred to a membrane and probed.)

For assay [2], the system named is Human Monocytic Leukemia MV4-11. Kind of assay: Cell proliferation experiment (Alarm blue, 72 h, EC50). Particulars: Homo sapiens. The procedure, abridged:
(§2)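 Log-phase cells, passaged at least 2 generations, were seeded in 96-well plates and exposed to test compound in complete medium as a 5-fold dilution series in duplicate for 72 h. Fluorescence was read by Alamar blue and EC50 fitted to a four-parameter curve (Min, Max, Slope).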

Assay [3] relates to PBMC. Kind of assay: Cell proliferation experiment (EC50), PBMC.
The subject of assay [4] is Human Colon Cancer HCT-116. The assay can be described thus: Cell proliferation experiment (Alarm blue, 72 h, EC50). Particulars: Homo sapiens, HCT-116; HCT116 cells. The method, boiled down: as §2
The subject of assay [5] is Human cervical adenocarcinoma cells Hela. Described as above. Particulars: Homo sapiens. The method, boiled down:
as §2

Assay [6] deals with Human Acute Myelomonocytic Leukemia HL-60. Described as above. Particulars: HL-60 cells. The procedure, abridged: as §2
Assay [7] deals with Human Breast Cancer MDA-MB-231. Described as above. Particulars: Homo sapiens; MDA-MB-231 cells. The procedure, abridged: as §2
A further assay concerns Human Colon Cancer HT-29. The assay is described as above. Conditions: Homo sapiens; HT-29 cells. The procedure, abridged: as §2
The subject of assay [8] is Human Glioma Cells U-87 MG. The assay is described as above. Conditions: Homo sapiens; U-87MG cells. The procedure, abridged: as §2
The test system of assay [9] is Human Small Cell Lung Cancer NCI-H82. The description is as above. Conditions: Homo sapiens, NCI-H82; NCIH82 cells. The method, boiled down: as §2
For assay [10], the system named is Human Monocytic Leukemia THP-1. Described as above. Conditions: THP-1 cells. The method, boiled down:
as §2

For assay [11], the system named is Human Acute Lymphoblastic Leukemia Cells MOLT-4. The description is as above. Conditions: MOL4-4 cells. The method, boiled down: as §2
The subject of a further assay is Daudi. The assay can be described thus: Cell proliferation experiment (EC50), Daudi. Particulars: Homo sapiens; Daudi cells.
In assay [12] the test system is HUVEC. The assay can be described thus: Cell proliferation experiment (EC50), HUVEC. Conditions: Homo sapiens. The source holds these as a separate data set.
Assay [13] has as its system PBMC. Kind of assay: Cell proliferation experiment (EC50), PBMC. This is another data set of the same source.
The mark [14] stands for this setting: 6 h, western blot, read-out: BRD4 DC50 (6 h).
Where [15] appears, read: 6 h, western blot, read-out: PLK1 DC50 (6 h).
Where [16] appears, read: 24 h, western blot, read-out: BRD4 DC50 (24 h).
The mark [17] stands for this setting: 24 h, western blot, read-out: PLK1 DC50 (24 h).

Take `CC[C@@H]1C(=O)N(C)c2cnc(Nc3ccc(C(=O)NCCOCCNCCCCCCC(=O)Nc4cccc5c4CN(C4CCC(=O)NC4=O)C5=O)cc3OC)nc2N1C1CCCC1` (stereo partly drawn) [UB-180655]: the EC50 (in general, the concentration at which the effect is half-maximal) with HUVEC [1] was greater than 1000 nM; in assay [2] (MV4;11 cells), 10 to 100 nM; in the assay on PBMC [3], greater than 1000 nM. For the same compound, the DC50 – broadly, the concentration at which degradation of the target reaches its halfway point – at BRD4 (setting [14]) was less than 10 nM; at PLK1 (setting [15]) it was 100 to 1000 nM.

Take `CC[C@@H]1C(=O)N(C)c2cnc(Nc3ccc(C(=O)NCCCNCCCCCC(=O)Nc4cccc5c4CN(C4CCC(=O)NC4=O)C5=O)cc3OC)nc2N1C1CCCC1` (stereo partly drawn) [UB-180660]: the EC50 in the assay with HUVEC [1] is greater than 1000 nM; in assay [4] it was 100 to 1000 nM; in assay [5], 100 to 1000 nM; in assay [6] it was 100 to 1000 nM; in assay [7] it was 100 to 1000 nM; in the assay on Human Colon Cancer HT-29, 100 to 1000 nM. The EC50 in assay [8] was 100 to 1000 nM; in assay [9], greater than 1000 nM; in assay [10], 100 to 1000 nM; in [2] (MV4-11, MV4;11 cells), 10 to 100 nM; in the assay on PBMC [3], greater than 1000 nM. Also, the DC50 was 10 to 100 nM on BRD4 (setting [14]) and less than 10 nM at PLK1 (setting [15]).

Take `CC[C@@H]1C(=O)N(C)c2cnc(Nc3ccc(C(=O)NCCOCCNCCCCCCC(=O)Nc4cccc5c4CN(C4CCC(=O)NC4=O)C5=O)cc3OC)nc2N1Cc1ccc(Cl)s1` (stereo partly drawn) [UB-180675]: the EC50 in the assay with HUVEC [1] was greater than 1000 nM; in assay [2] (MV4;11 cells) it was 10 to 100 nM; in the assay with PBMC [3], greater than 1000 nM. Besides, the half-maximal degradation concentration (DC50) on BRD4 (setting [14]) and at PLK1 (setting [15]) was less than 10 nM throughout.

Take `CC[C@@H]1C(=O)N(C)C2CNC(Nc3ccc(C(=O)NCCCNCCCC(=O)Nc4cccc5c4CN(C4CCC(=O)NC4=O)C5=O)cc3OC)NC2N1Cc1ccc(Cl)s1` (stereo partly drawn) [UB-180678]: the EC50 (in the assay on HUVEC [1]; in [6]; in assay [7]; in the assay with Human Colon Cancer HT-29; in assay [8]; in assay [9]) was 100 to 1000 nM in each case. Also, the EC50 in assay [2] (MV4;11 cells) was 10 to 100 nM; in [11], 100 to 1000 nM; in the assay on PBMC [3], 100 to 1000 nM. Moreover, the DC50 was less than 10 nM on BRD4 (setting [14]) and 100 to 1000 nM at PLK1 (setting [15]).

In the case of `CC[C@@H]1C(=O)N(C)c2cnc(Nc3ccc(C(=O)NCc4cn(CCNCCC(=O)Nc5cccc6c5CN(C5CCC(=O)NC5=O)C6=O)nn4)cc3OC)nc2N1C1CCCC1` (stereo partly drawn) [UB-180680], the half-maximal effective concentration (EC50) is greater than 1000 nM in the assay with HUVEC [1]; 100 to 1000 nM in assay [6]; 100 to 1000 nM in assay [7]; 100 to 1000 nM in the assay on Human Colon Cancer HT-29; 100 to 1000 nM in assay [8]; 100 to 1000 nM in assay [9]. Further, the EC50 in [2] (MV4;11 cells) is 10 to 100 nM; in [11] it was 100 to 1000 nM; with Daudi, 100 to 1000 nM; with PBMC [3], greater than 1000 nM. Moreover, the DC50 is less than 10 nM at BRD4 (setting [14]), less than 10 nM at BRD4 (setting [16]), less than 10 nM at PLK1 (setting [15]) and 10 to 100 nM on PLK1 (setting [17]).

Turning to `CC[C@@H]1C(=O)N(C)c2cnc(Nc3ccc(C(=O)NC4CCN(CCOCCNCC(=O)Nc5cccc6c5CN(C5CCC(=O)NC5=O)C6=O)CC4)cc3OC)nc2N1C1CCCC1` (stereo partly drawn) [UB-180699], the DC50 on BRD4 (setting [16]) and at PLK1 (setting [17]) was less than 10 nM each time. Further, the EC50 is 100 to 1000 nM in [5]; 100 to 1000 nM in assay [6]; greater than 1000 nM in [7]; 100 to 1000 nM in the assay with Human Colon Cancer HT-29; 100 to 1000 nM in [8]; 100 to 1000 nM in assay [9]. The EC50 in assay [10] was 100 to 1000 nM; in assay [2] (MV4;11 cells), 10 to 100 nM; in assay [11] it was 100 to 1000 nM.

On to `CC[C@@H]1C(=O)N(C)c2cnc(Nc3ccc(C(=O)NCc4cn(CCNCCOCC(=O)Nc5cccc6c5CN(C5CCC(=O)NC5=O)C6=O)nn4)cc3OC)nc2N1Cc1ccc(Cl)s1` (stereo partly drawn) [UB-180720], for which the DC50 at BRD4 (24 h, read-out: BRD4 DC50 (nM) (24 h)) is less than 10 nM; on PLK1 (24 h, read-out: PLK1 DC50 (nM) (24 h)), less than 10 nM. In addition, the EC50 (in [4]; in [5]; in assay [6]; in [7]; in the assay with Human Colon Cancer HT-29; in [8]) was 100 to 1000 nM each time. For the same compound, the concentration for a half-maximal effect (EC50) in assay [9] was 100 to 1000 nM; in assay [10], 100 to 1000 nM; in assay [2] (MV4;11 cells) it was less than 10 nM; in [11], 100 to 1000 nM.

Take `O=C1CCC(N2Cc3c(NC(=O)CCOCCOCCOCCNCCOCCNC(=O)[C@]4(Cc5cccc(Nc6nccs6)n5)CC[C@@H](Oc5cccc(Cl)c5F)CC4)cccc3C2=O)C(=O)N1` (stereo partly drawn) [UB-180804]: the EC50 is greater than 1000 nM in the assay with HUVEC [12]; greater than 1000 nM in [6]; 100 to 1000 nM in assay [2] (MV4-11, MV4;11 cells); greater than 1000 nM with PBMC [13].
